Source: patent US8664289B2, “Dye and coloring photosensitive composition” (Adeka Corporation, priority 2010, dated 2014)

Key:
Assay type in all cases: physicochemical
[1] = Evaluation of heat resistance by TG-DTA; settings: temperature at 10% weight loss
Procedure: Compounds Nos. 1 to 7, 16, 26, 43, 52 to 62, 65, 66, 69, 70 and 94 to 102 and Comparative Compounds Nos. 1 and 2 obtained above were analyzed by TG-DTA, and the melting points and temperatures at 10% weight loss were measured. The results are shown in [Table 6].

[2] = Evaluation of absorption wavelength property in CHCl3 solution; design: ε: unit not given here; settings: for ε: molar absorption coefficient
Excerpt: The absorption wavelength properties of Compounds Nos. 1 to 7, 16, 26, 43, 52 to 62, 65, 66, 69, 70 and 94 to 102 and Comparative Compounds Nos. 1 and 2 obtained above were each evaluated in a CHCl3 solution. The results are shown in [Table 5].

[3] = Heat resistance of exposed coating film of coloring alkali-developable photosensitive composition
Excerpt: 30.33 g of ACA Z250 (manufactured by Daicel Cytec Company Ltd.) and 11.04 g of ARONIX M-450 (manufactured by Toagosei Co., Ltd.) as the component (B), 1.93 g of IRGACURE 907 (manufactured by BASF) as the component (C), 36.60 g of PGMEA and 20.08 g of cyclohexanone as the component (E), as well as 0.01 g of FZ2122 (manufactured by Dow Corning Toray Co., Ltd.) as other component were mixed and stirred until insoluble components were diminished to give Alkali-developable photosensitive composition No. 1.
1.90 g of dimethylacetamide was added to 0.10 g of Compound No. 1 obtained above as the component (A) and dissolved under stirring.
5.0 g of Alkali-developable photosensitive composition No. 1 obtained in Step 1 and 1.0 g of Dye liquid No. 1 obtained in Step 2 were mixed and stirred to homogeneous to give Coloring alkali-developable photosensitive composition No. 1 of the present invention.
Coloring alkali-developable photosensitive compositions Nos. 2 to 20 were obtained in a similar manner to that in Example 2-1, except that Compound No. 1 as the component (A) in Step 2 of Example 2-1 was changed to Compound No. 2, 3, 5, 6, 16, 53, 56, 57, 59, 60, 65, 66, 94 or 96 to 101 obtained above.
Comparative coloring alkali-developable photosensitive compositions Nos. 1 and 2 were obtained in a similar manner to that in Example 2-1, except that Compound No. 1 as the component (A) in Step 2 of Example 2-1 was changed to Comparative Compound No. 1 or 2.
The coloring alkali-developable photosensitive compositions obtained in Example 2 were each applied to a glass basal plate under a condition of 410 rpm×7 sec and dried (90° C., 90 sec) on a hot plate. The obtained coating film was exposed (150 mJ/cm^2) by using an ultrahigh pressure mercury lamp. The heat resistance of the exposed coating film was investigated under conditions of 180° C.×60 min and 230° C.×30 min. The results are shown in [Table 7].
Using the coloring alkali-developable photosensitive compositions obtained in Examples 2-2 to 2-20 and Comparative Examples 2-1 and 2-2, heat resistance was investigated in a similar manner to that in Evaluation Example 3. The results are shown in [Table 7].

Solubility in PGMEA = settings: concentration when PGMEA was added dropwise to 0.1 g of the compound under stirring and was dissolved completely
Procedure: (§1) That the obtained solid was an intended product was confirmed by ^1H-NMR and IR. Furthermore, the solubility of the obtained compound was measured. The solubility was a concentration when PGMEA was added dropwise to 0.1 g of the compound under stirring and was dissolved completely. The results thereof are shown in [Table 1] to [Table 4].
as §1, with “added” for “added dropwise”, “while” for “under”, “4]” for “4].”

Compound	10% weight loss [1]	λmax [2]	ε [2]	Relative intensity After exposure ([3]; coating film after exposure (150 mJ/cm^2), before heating)	λmax ([3]; coating film of composition containing the compound, on glass)	Relative intensity 230° C., 30 min ([3]; exposed coating film after 230° C., 30 min)	Solubility (PGMEA) (Solubility in PGMEA)
CCOC(=O)/C(C#N)=C/c1ccc(N(CC)CC)cc1 [Comparative Compound No. 1, reference compound]	259 °C	430 nm	54900				
CCOCCOC(=O)/C(C#N)=C/c1ccc(N(CC)CC)cc1 [Comparative Compound No. 2, reference compound]				100	433 nm	24.0	
CCOCCOC(=O)C(C#N)=C(C)c1ccc(N(CC)CC)cc1 [Comparative Compound No. 2, reference compound]	252 °C	432 nm	57200				
CCN(CC)c1ccc(/C=C(\C#N)C(=O)OCCCCCOC(=O)/C(C#N)=C/c2ccc(N(CC)CC)cc2)cc1 [Compound No. 4]	335 °C	431 nm	110000				0.6 wt %
CCN(CC)c1ccc(/C=C(\C#N)C(=O)NCCCCCCNC(=O)/C(C#N)=C/c2ccc(N(CC)CC)cc2)cc1 [Compound No. 7]	352 °C	432 nm	99600				0.2 wt %
CCN(CC)c1ccc(/C=C(\C#N)C(=O)Oc2ccc(-c3nc(-c4ccc(OC(=O)/C(C#N)=C/c5ccc(N(CC)CC)cc5)cc4)nc(-c4ccc(OC(=O)/C(C#N)=C/c5ccc(N(CC)CC)cc5)cc4)n3)cc2)cc1 [Compound No. 26]	321 °C	447 nm	210000				1.0 or less wt %
CC(COC(=O)/C(C#N)=C/c1ccc(N2CCOCC2)cc1)OC(=O)/C(C#N)=C/c1ccc(N2CCOCC2)cc1 (centres unmarked) [Compound No. 43]	318 °C	408 nm	62800				1.0 or less wt %
CCN(CC)c1ccc(/C=C(\C#N)C(=O)Oc2ccc(C3(c4ccc(OC(=O)/C(C#N)=C/c5ccc(N(CC)CC)cc5)cc4)CCCCC3)cc2)cc1 [Compound No. 52]	322 °C	441 nm	121000				0.6 wt %
CCN(CC)c1ccc(/C=C(\C#N)C(=O)NCC(C)NC(=O)/C(C#N)=C/c2ccc(N(CC)CC)cc2)cc1 (centres unmarked) [Compound No. 54]	354 °C	428 nm	90500				1.0 or less wt %
CC(COC(=O)/C(C#N)=C/c1ccc(N(C)C)cc1)OC(=O)/C(C#N)=C/c1ccc(N(C)C)cc1 (centres unmarked) [Compound No. 55]	323 °C	427 nm	84600				1.0 or less wt %
CCN(CCC#N)c1ccc(/C=C(\C#N)C(=O)OCCCCCCOC(=O)/C(C#N)=C/c2ccc(N(CC)CCC#N)cc2)cc1 [Compound No. 58]	351 °C	420 nm	80500				1.0 or less wt %
CN(C)c1ccc(/C=C(\C#N)C(=O)OCCCCCCCCCCOC(=O)/C(C#N)=C/c2ccc(N(C)C)cc2)cc1 [Compound No. 61]	350 °C	423 nm	90800				1.0 or less wt %
CC(=O)OCCN(CCOC(C)=O)c1ccc(/C=C(\C#N)C(=O)OCCCCCCCOC(=O)/C(C#N)=C/c2ccc(N(CCOC(C)=O)CCOC(C)=O)cc2)cc1 [Compound No. 62]	366 °C	409 nm	89900				1.0 or less wt %
CCCCN(CCCC)c1ccc(/C=C(\C#N)C(=O)Oc2ccc(C(c3ccc(OC(=O)/C(C#N)=C/c4ccc(N(CCCC)CCCC)cc4)cc3)(C(F)(F)F)C(F)(F)F)cc2)cc1 [Compound No. 69]	336 °C	448 nm	107000				1.0 or less wt %
